≈ marks a conversion by molar mass, not a printed value. Calls of active or inactive are those of the source. The rule behind the calls is not given here.
Legend:
A549/TR [1] = experiment: Antiproliferative activity against human A549/T cell assessed as cell growth inhibition incubated for 48 hrs by MTT assay; assay type: functional, cell-based
A549 [2] = experiment: Antiproliferative activity against human A549 cells assessed as cell growth inhibition incubated for 48 hrs by MTT assay; details: A549, 48 h
[3] = Cytotoxicity against human MCF-10A cells assessed as inhibition of cell growth at 2 nM incubated for 48 hrs by MTT assay relative to control; assay type: toxicity, cell-based
HCC827 = experiment: Antiproliferative activity against human HCC827 cells assessed as cell growth inhibition incubated for 48 hrs by MTT assay; assay type: functional, cell-based; details: HCC827, 48 h
[4] = (§1) Inhibition of pig brain tubulin polymerization measured upto 20 mins by absorbance based assay; set-up: species or system Sus scrofa
Sus scrofa = species on record: Sus scrofa; experiment: as §1; details: dose 0.4-12 µM
Tubulin (Homo sapiens) = Tubulin (Homo sapiens) (UniProt P68371+Q9H4B7+P0DPH7+P68366+Q13509+Q71U36+P04350+Q3ZCM7+P07437+P68363+Q9BQE3+Q6PEY2+Q13885+Q9BVA1+Q9BUF5); experiment: Disruption of microtubule network in human A549 cells at 50 to 100 nM incubated for 24 hrs by immunofluorescence staining based confocal microscopy analysis; assay type: cell-based; details: dose 50-100 nM
A549 [5] = experiment: Inhibition of colony formation in human A549 cells incubated for 48 hrs by crystal violet staining based analysis; assay type: functional, cell-based; details: dose 0.1-0.5 µM
A549/TR [6] = experiment: Effect on P-gp protein level in human A549/T cell at 62.5 to 500 nM measured at 12 hrs by immunoblotting analysis; assay type: functional, cell-based; details: dose 62.5-500 nM
A549 [7] = experiment: Induction of cell cycle arrest in human A549 cells assessed as accumulation of cells at G2/M phase by RNAse A/PI-staining based flow cytometric analysis; assay type: functional; details: dose 25-100 nM
A549/TR [8] = experiment: Induction of cell cycle arrest in human A549/T cell assessed as accumulation of cells at G2/M phase by RNAse A/PI-staining based flow cytometric analysis; assay type: functional; details: dose 25-100 nM
A549 [9] = experiment: Induction of apoptosis in human A549 cells at 50 nM incubated for 48 hrs by V-FITC/PI staining based flow cytometry analysis relative to control; assay type: functional
A549 [10] = experiment: Induction of apoptosis in human A549 cells at 100 nM incubated for 48 hrs by V-FITC/PI staining based flow cytometry analysis relative to control; assay type: functional
A549/TR [11] = experiment: Induction of apoptosis in human A549/T cell at 62.5 nM incubated for 48 hrs by V-FITC/PI staining based flow cytometry analysis relative to control; assay type: functional
[12] = Metabolic stability in human liver microsome assessed as parent compound remaining measured upto 50 mins by LC-MS/MS analysis; assay type: ADME; details: microsomes
[13] = Metabolic stability in human liver microsome assessed as half life measured upto 50 mins by LC-MS/MS analysis; assay type: ADME; details: liver microsomes
[14] = Metabolic stability in human liver microsome assessed as intrinsic clearance measured upto 50 mins by LC-MS/MS analysis; assay type: ADME; details: liver microsomes, read-out: CLH
[15] = Aqueous solubility of the compound […] at pH 7.4 by HPLC analysis; assay type: physicochemical
[16] = Toxicity in BALB/c mouse implanted with human A549/T cell assessed as change in body weight at 15 mg/kg, ip administered every 2 days; assay type: organism-based; details: in vivo, 48 h, time 2 day
[17] = Toxicity in BALB/c mouse implanted with human A549/T cell assessed as change in body weight at 30 mg/kg, ip administered every 2 days; assay type: organism-based; details: in vivo, 48 h, time 2 day
[18] = Toxicity in BALB/c mouse implanted with human A549/T cell assessed as heart damage at 15 to 30 mg/kg, ip administered every 2 days by H and E staining based analysis; assay type: organism-based; details: in vivo, 48 h, dose 15-30 mg/kg, time 2 day
[19] = Toxicity in BALB/c mouse implanted with human A549/T cell assessed as kidney damage at 15 to 30 mg/kg, ip administered every 2 days by H and E staining based analysis; assay type: organism-based; details: in vivo, 48 h, dose 15-30 mg/kg, time 2 day
[20] = Toxicity in BALB/c mouse implanted with human A549/T cell assessed as RBC count at 30 mg/kg, ip administered every 2 days and measured after 2 weeks (reference value: 7.92 10^12/L); assay type: organism-based; details: in vivo, 336 h
[21] = Toxicity in BALB/c mouse implanted with human A549/T cell assessed as red blood cell distribution width-cell volume at 30 mg/kg, ip administered every 2 days and measured after 2 weeks (reference value: 25fL); assay type: organism-based; details: in vivo, 336 h
[22] = Toxicity in BALB/c mouse implanted with human A549/T cell assessed as red blood cell distribution width-cell size at 30 mg/kg, ip administered every 2 days and measured after 2 weeks (reference value: 12.1 fL); assay type: organism-based; details: in vivo, 336 h
[23] = Toxicity in BALB/c mouse implanted with human A549/T cell assessed as platelet count at 15 mg/kg, ip administered every 2 days and measured after 2 weeks (reference value: 539 […]); assay type: organism-based; details: in vivo, 336 h
[24] = Toxicity in BALB/c mouse implanted with human A549/T cell assessed as platelet count at 30 mg/kg, ip administered every 2 days and measured after 2 weeks (reference value: 539 […]); assay type: organism-based; details: in vivo, 336 h
[25] = Toxicity in BALB/c mouse implanted with human A549/T cell assessed as Plate-letocrit at 15 mg/kg, ip administered every 2 days and measured after 2 weeks (reference value: 0.549%); assay type: organism-based; details: in vivo, 336 h
[26] = Toxicity in BALB/c mouse implanted with human A549/T cell assessed as Plate-letocrit at 30 mg/kg, ip administered every 2 days and measured after 2 weeks (reference value: 0.549%); assay type: organism-based; details: in vivo, 336 h
[27] = Toxicity in BALB/c mouse implanted with human A549/T cell assessed as mean platelet volume at 30 mg/kg, ip administered every 2 days and measured after 2 weeks (reference value: 10.1 fL); assay type: organism-based; details: in vivo, 336 h
[28] = Toxicity in BALB/c mouse implanted with human A549/T cell assessed as platelet distribution width at 30 mg/kg, ip administered every 2 days and measured after 2 weeks (reference value: 15.3 fL); assay type: organism-based; details: in vivo, 336 h
[29] = Toxicity in BALB/c mouse implanted with human A549/T cell assessed as MCH level at 15 mg/kg, ip administered every 2 days and measured after 2 weeks (reference value: 29.2 pg); assay type: organism-based; details: in vivo, 336 h
[30] = Toxicity in BALB/c mouse implanted with human A549/T cell assessed as MCH level at 30 mg/kg, ip administered every 2 days and measured after 2 weeks (reference value: 29.2 pg); assay type: organism-based; details: in vivo, 336 h
[31] = Toxicity in BALB/c mouse implanted with human A549/T cell assessed as MCHC level at 15 mg/kg, ip administered every 2 days and measured after 2 weeks (reference value: 570 g/L); assay type: organism-based; details: in vivo, 336 h
[32] = Toxicity in BALB/c mouse implanted with human A549/T cell assessed as monocyte count at 15 mg/kg, ip administered every 2 days and measured after 2 weeks (reference value: 30.6 %); assay type: organism-based; details: in vivo, 336 h
[33] = Toxicity in BALB/c mouse implanted with human A549/T cell assessed as monocyte count at 30 mg/kg, ip administered every 2 days and measured after 2 weeks (reference value: 30.6 %); assay type: organism-based; details: in vivo, 336 h

IC50 (A549/TR [1]): 57 nM | IC50 (A549 [2]): 23 nM | IC50 (HCC827): 46 nM | IC50 [4]: 1800 nM | inhibition (Sus scrofa): Dose-dependent-effect | Activity (Tubulin (Homo sapiens)): Active | Stability [12]: Stable | half-life [13]: 1.25 h | CLint scaled [14]: 23 mL/min/kg | solubility [15]: 20.8 µg/mL (≈ 51.3 µM)
Compound: COc1ccc(-c2cc(-c3ccc(OC)c(OC)c3OC)c3nc[nH]c3c2)cc1N
inhibition at 48 h, 0.002 µM [3]: 1% | inhibition (A549 [5]): Dose-dependent-effect | Activity (A549/TR [6]): inactive | Activity (A549 [7]): Dose-dependent-effect | Activity (A549/TR [8]): Dose-dependent-effect | Activity (A549 [9]): 34.2% | Activity (A549 [10]): 44.42% | Activity (A549/TR [11]): 22.22% | Activity [16]: Non-toxic | Activity [17]: Non-toxic | Activity [18]: Non-toxic | Activity [19]: Non-toxic | Activity [20]: 5.94 10^12/L | Activity [21]: 25 fL | Activity [22]: 12.3 fL | Activity [23]: 505 10^9/L | Activity [24]: 415 10^9/L | Activity [25]: 0.531% | Activity [26]: 0.425% | Activity [27]: 10.2 fL | Activity [28]: 16.9 fL | Activity [29]: 28.9 pg | Activity [30]: 31.6 pg | Activity [31]: 589 g/L | Activity [32]: 29.5% | Activity [33]: 23.4%

Source: ChEMBL document CHEMBL6074685, “Design, synthesis and biological evaluation of novel diaryl-substituted fused nitrogen heterocycles as tubulin polymerization inhibitors to overcome multidrug resistance in vitro and in vivo” (Eur J Med Chem, 2025)
